US9365583B2, “Substituted pyrazoles and uses thereof” (Genentech, Inc., priority 2013, dated 2016)

What follows are compounds tested against T1, N-terminally GST-tagged DLK (catalytic domain amino acid 1-520) (Homo sapiens, UniProt Q12852) (assay: DLK TR-FRET inhibition assay). Settings: 5 nM GST-DLK, 40 nM HIS-MKK4 K131M substrate, 30 μM ATP, 60 minutes at ambient temperature.
T1 construct: N-terminally GST-tagged DLK (catalytic domain amino acid 1-520); purchased Carna Bioscience
T1 sequence (Q12852 1-520): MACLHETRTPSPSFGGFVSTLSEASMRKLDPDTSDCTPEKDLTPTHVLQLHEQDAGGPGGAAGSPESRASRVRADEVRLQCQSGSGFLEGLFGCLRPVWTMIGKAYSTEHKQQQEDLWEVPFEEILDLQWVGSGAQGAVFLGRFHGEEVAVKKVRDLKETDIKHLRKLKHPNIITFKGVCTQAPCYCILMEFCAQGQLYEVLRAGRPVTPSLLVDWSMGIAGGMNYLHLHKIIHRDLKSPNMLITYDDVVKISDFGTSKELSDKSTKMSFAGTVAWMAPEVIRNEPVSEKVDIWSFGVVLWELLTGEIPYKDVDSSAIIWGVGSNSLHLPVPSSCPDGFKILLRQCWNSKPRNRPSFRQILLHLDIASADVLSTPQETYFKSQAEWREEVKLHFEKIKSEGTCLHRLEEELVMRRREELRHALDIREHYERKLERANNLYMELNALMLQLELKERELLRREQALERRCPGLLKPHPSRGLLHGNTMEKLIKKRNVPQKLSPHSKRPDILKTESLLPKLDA
Assay type: biochemical
Experimental: DLK TR-FRET inhibition assay: DLK kinase reactions (20 μL) containing 5 nM N-terminally GST-tagged DLK (catalytic domain amino acid 1-520) (Carna Bioscience), 40 nM N-terminally HIS-tagged MKK4 K131M substrate, and 30 μM ATP in kinase reaction buffer (50 mM HEPES, pH 7.5, 0.01% Triton X-100, 0.01% Bovine γ-Globulins, 2 mM DTT, 10 mM MgCl2 and 1 mM EGTA), and testing compound 1:3 serial diluted starting at 20 uM were incubated at ambient temperature for 60 minutes in 384 well OptiPlate (Perkin Elmer). To quench kinase reactions and detect phosphorylated MKK4, 15 μL of TR-FRET antibody mixture containing 2 nM anti-phosphorylated MKK4 labeled with Europium cryptate (Cisbio) and 23 nM anti-HIS labeled with D2 (Cisbio) in detection buffer (25 mM Tris pH 7.5, 100 mM NaCl, 100 mM EDTA, 0.01% Tween-20, and 200 mM KF) was added to the reaction mixture. The detection mixture was incubated for 3 hours at ambient temperature and the TR-FRET was detected with an EnVision multilabel plate reader (Perkin-Elmer) using the LANCE/DELFIA Dual Enh label from Perkin-Elmer (excitation filter: UV2 (TRF) 320 and emission filters: APC 665 and Europium 615).

Structure (SMILES)	Ki [nM]
CC(C)n1nc(-c2cnc(N)c(OC(F)F)c2)cc1[C@H]1[C@@H]2C[C@H](N3C[C@@H](F)[C@@H](F)C3)C[C@@H]21 [compound 118, 3-(difluoromethoxy)-5-(5-((1R,3r,5S,6R)-3-((3S,4R)-3,4-difluoro-pyrrolidin-1-yl)bicyclo[3.1.0]hexan-6-yl)-1-isopropyl-1H-pyrazol-3-yl)pyridin-2-amine]	3.75
CC(C)n1nc(-c2cnc(N)c(OC(F)F)c2)cc1[C@H]1[C@@H]2C[C@H](N3CC4(CCCO4)C3)C[C@@H]21 [compound 225, 5-(5-((1R,3r,5S,6r)-3-(5-oxa-2-azaspiro[3.4]octan-2-yl)bicyclo [3.1.0]hexan-6-yl)-1-isopropyl-1H-pyrazol-3-yl)-3-(difluoro-methoxy)pyridin-2-amine]	4.2
CC(C)n1nc(-c2cnc(N)c(OC(F)F)c2)cc1[C@H]1[C@@H]2C[C@H](OC3COC3)C[C@@H]21 [compound 230, 3-(difluoromethoxy)-5-(1-iso-oprpyl-5-((1R,3r,5S,6r)-3-(oxetan-3-yloxy)bicyclo[3.1.0]hexan-6-yl)-1H-pyrazol-3-yl)pyridin-2-amine]	3.4
CC(C)n1nc(-c2cnc(N)c(OC(F)F)c2)cc1[C@H]1[C@@H]2CC(=O)C[C@@H]21 [compound 85, (1R,5S,6r)-6-(3-(6-amino-5-(difluoro-methoxy)pyridin-3-yl)-1-isopropyl-1H-pyrazol-5-yl)bicyclo [3.1.0]hexan-3-one]	47.8
CC(C)n1nc(-c2cnc(N)c(OC(F)(F)F)c2)cc1[C@@H]1[C@@H]2C[C@H](N3CCOCC3)C[C@@H]21 [compound 125, 5-(1-isopropyl-5-((1R,3r,5S,6s)-3-morpholinobicyclo[3.1.0]hexan-6-yl)-1H-pyrazol-3-yl)-3-(trifluoro-methoxy)pyridin-2-amine]	> 1600
CC(C)n1nc(-c2cnc(N)c(OC(F)F)c2)cc1[C@H]1[C@@H]2C[C@@H](N3CC4(CN(C)CCO4)C3)C[C@@H]21 [compound 224, 3-(difluoromethoxy)-5-(1-isopropyl-5-((1R,3s,5S,6r)-3-(8-methyl-5-oxa-2,8-diazaspiro[3.5]nonan-2-yl)bicyclo[3.1.0]hexan-6-yl)-1H-pyrazol-3-yl)pyridin-2-amine]	3.8
COCC1(F)CCN(C2C[C@@H]3C(c4cc(-c5cnc(N)c(OC(F)F)c5)nn4C(C)C)[C@@H]3C2)C1 (single isomer, unassigned) [compound 171]	5.4
CO[C@H]1CCCN([C@H]2C[C@@H]3[C@H](C2)[C@H]3c2cc(-c3cnc(N)c(C(F)(F)F)c3)nn2C(C)C)C1 [compound 286, 5-(1-isopropyl-5-((1R,3r,5S,6S)-3-((S)-3-methoxypiperidin-1-yl)bicyclo[3.1.0]hexan-6-yl)-1H-pyrazol-3-yl)-3-(trifluoromethyl) pyridin-2-amine]	3.4
CC(C)n1nc(-c2cnc(N)c(C(F)(F)F)c2)cc1[C@H]1[C@@H]2C[C@H](N3CCCN(C)CC3)C[C@@H]21 [compound 211, 5-(1-isopropyl-5-((1R,3r,5S,6r)-3-(4-methyl-1,4-diazepan-1-yl)bicyclo[3.1.0]hexan-6-yl)-1H-pyrazol-3-yl)-3-(trifluoromethyl) pyridin-2-amine]	3.2
CC(C)n1nc(-c2cnc(N)c(C(F)(F)F)c2)cc1[C@H]1[C@@H]2CC3(C[C@@H]21)CN(C)C(=O)CO3 (stereo partly drawn) [compound 229, (1R,5S,6r)-6-(3-(6-amino-5-(tri-fluoromethyl)pyridin-3-yl)-1-isopropyl-1H-pyrazol-5-yl)-4′-methylspiro[bicyclo[3.1.0]hexane-3,2′-morpholin]-5′-one]	3.9
CC(C)n1nc(-c2cnc(N)c(C(F)(F)F)c2)cc1[C@@H]1[C@H]2CC[C@@H](N3CCOCC3)[C@H]21 (single isomer, unassigned) [compound 138, 5-(1-isopropyl-5-(2-morpholinobicyclo[3.1.0]hexan-6-yl)-1H-pyrazol-3-yl)-3-(trifluoromethyl) pyridin-2-amine]	12.9

These reach a lower Ki. Values come first.

Ki [nM]	Structure (SMILES)
1.5	CO[C@H]1CCN([C@@H]2C[C@@H]3[C@H](C2)[C@H]3c2cc(-c3cnc(N)c(OC(F)(F)F)c3)nn2C(C)C)C1 [compound 214, 5-(1-isopropyl-5-((1R,3s,5S,6S)-3-((S)-3-methoxypyrrolidm-1-yl)bicyclo[3.1.0]hexan-6-yl)-1H-pyrazol-3-yl)-3-(trifluoromethoxy) pyridin-2-amine]
2.13	CC(C)n1nc(-c2cnc(N)c(SC(F)(F)F)c2)cc1[C@H]1[C@@H]2C[C@@H](N3CCOCC3)C[C@@H]21 [compound 95, 5-(1-isopropyl-5-((1R,3s,5S,6r)-3-morpholinobicyclo[3.1.0]hexan-6-yl)-1H-pyrazol-3-yl)-3-((trifluoro-methyl)thio)pyridin-2-amine]
3	CC(C)n1nc(-c2cnc(N)c(OC(F)F)c2)cc1[C@H]1[C@@H]2C[C@H](NCC(F)F)C[C@@H]21 [compound 252, 5-(5-((1R,3r,5S,6r)-3-((2,2-difluoro-ethyl)amino)bicyclo[3.1.0]hexan-6-yl)-1-isopropyl-1H-pyrazol-3-yl)-3-(difluoromethoxy) pyridin-2-amine]
1.81	COC1CCN([C@H]2C[C@@H]3[C@H](C2)[C@H]3c2cc(-c3cnc(N)c(OC(F)F)c3)nn2C(C)C)C1 (stereo partly drawn) [compound 73, 3-(difluoromethoxy)-5-(1-isopropyl-5-((lR,3r,5S,6r)-3-(3-methoxy-pyrrolidin-1-yl)bicyclo[3.1.0]hexan-6-yl)-1H-pyrazol-3-yl) pyridin-2-amine]
0.7	CC(C)n1nc(-c2cnc(N)c(OC(F)F)c2)cc1[C@H]1[C@@H]2C[C@@H](N3CCN4CCCC4C3)C[C@@H]21 (single isomer, unassigned) [compound 259]
2.21	CC(C)n1nc(-c2cnc(N)c(C(F)(F)F)c2)cc1[C@H]1[C@@H]2C[C@H](N3CCN(C)CC3)C[C@@H]21 [compound 63, 5-(1-isopropyl-5-((1R,3r,5S,6r)-3-(4-methylpiperazin-1-yl)bicyclo [3.1.0]hexan-6-yl)-1H-pyrazol-3-yl)-3-(trifluoromethyl)pyridin-2-amine]
1.8	CC(C)N1CCN([C@@H]2C[C@@H]3[C@H](C2)[C@H]3c2cc(-c3cnc(N)c(OC(F)F)c3)nn2C(C)C)CC1 [compound 176, 3-(difluoromethoxy)-5-(1-isopropyl-5-((1R,3s,5S,6r)-3-(4-isopropyl-piperazin-1-yl)bicyclo[3.1.0]hexan-6-yl)-1H-pyrazol-3-yl) pyridin-2-amine]
2.9	CC(C)n1nc(-c2cnc(N)c(OC(F)F)c2)cc1[C@H]1[C@@H]2C[C@@H](N3CCCN(C)CC3)C[C@@H]21 [compound 205, 3-(difluoromethoxy)-5-(1-isopropyl-5-((1R,3s,5S,6r)-3-(4-methyl-1,4-diazepan-1-yl)bicyclo [3.1.0]hexan-6-yl)-1H-pyrazol-3-yl)pyridin-2-amine]
1	CC(C)n1nc(-c2cnc(N)c(C(F)(F)F)c2)cc1[C@H]1[C@@H]2C[C@@H](N3CCN4CCCC4C3)C[C@@H]21 (single isomer, unassigned) [compound 263]
1.59	CC(C)n1nc(-c2cnc(N)c(OC(F)(F)F)c2)cc1[C@H]1[C@@H]2C[C@H](N3CCO[C@@H](C)C3)C[C@@H]21 [compound 109, 5-(1-isopropyl-5-((1R,3r,5S,6S)-3-((S)-2-methylmorpholino)bicyclo[3.1.0]hexan-6-yl)-1H-pyrazol-3-yl)-3-(trifluoromethoxy) pyridin-2-amine]
1.89	CC(C)n1nc(-c2cnc(N)c(OC(F)(F)F)c2)cc1[C@H]1[C@@H]2C[C@@H](N3CCOC[C@H]3C)C[C@@H]21 [compound 13, 5-(1-isopropyl-5-((1R,3s,5S,6R)-3-((R)-3-mcthylmorpholino)bicyclo[3.1.0]hexan-6-yl)-1H-pyrazol-3-yl)-3-(trifluoromethoxy) pyridin-2-amine]
2.6	COC1CCN([C@@H]2C[C@@H]3[C@H](C2)[C@H]3c2cc(-c3cnc(N)c(C(F)(F)F)c3)nn2C(C)C)CC1 [compound 249, 5-(1-isopropyl-5-((1R,3s,5S,6r)-3-(4-methoxypiperidin-1-yl)bicyclo[3.1.0]hexan-6-yl)-1H-pyrazol-3-yl)-3-(trifluoromethyl) pyridin-2-amine]
